Data from ChEMBL document CHEMBL5365393, “Comprehensive coverage on anti-mycobacterial endeavour reported during 2022” (Eur J Med Chem, 2023).
Converted amounts (≈) assume the structure as drawn.

Tested on: Mycobacterium tuberculosis variant bovis
Experiment: Antibacterial activity against Mycobacterium bovis BCG assessed as inhibition of bacterial growth incubated for 15 days by REMA method
Assay type: functional
Settings: 360 h, time 15 day

`N#Cc1cc(OCCOc2ccccc2)cc(-c2ccc(C(=O)O)o2)c1` showed an MIC99 of 63 µM (≈ 22 µg/mL).
